Measured values reported in patent publication US6352976B1, “Selective inhibitors of MMP-12” (Aventis Pharmaceuticals Inc., priority 1998, dated 2002).

Target: T1, MMP-12 (macrophage metalloelastase) (Homo sapiens, UniProt P39900)
T1 construct: made in house
Test: Determination of the inhibition constant (Ki) for MMP-12, fluorogenic substrate
Format: biochemical
Settings: compared to their N-methylamide derivatives (Examples 6 and 7); from Ki values of Table 2
Method: MMP-12 (EC3.4.24.65) was cloned, expressed and purified according to Shapiro, S. D. et al., J Biol. Chem. 268, 23824-23829 (1993). […] Aliquots of MMP-12 were stored at −70° C.
The potency of inhibitors of MMP-12 was measured using either quartz cuvettes or microtiter plates. The activity of MMP-12 was measured using a fluorogenic substrate, Mca-Pro-Leu-Gly-Leu-Dpa-Ala-Arg-NH2 SEQ ID NO1, Knight, C. G. et al., FEBS Lett. 296,263-266 (1992), at 25° C. in an assay buffer containing 50 mM Tris, pH 7.6, 0.2 M sodium chloride, 50 mM calcium chloride, and 0.02% Brij-35. The increase in fluorescence due to cleavage of Gly-Leu peptide bond by MMP-12 was monitored with a Perkin-Elmer LS50B Fluorimeter (λex 328 nm, λem 393 nm, excitation slit 2.5, emission slit 10) for the cuvette assay and with a Molecular Devices Fmax fluorescence plate reader (λex 320 nm, λem 405 nm) for the microtiter plate assay. Substrate and inhibitor stock solutions were made in N,N-dimethylformamide (DMF) and 0.1% HCl-DMF, respectively.
Ki values were determined using the cuvette method by preparing a series of intermediate inhibitors solutions in 0.1% HCl-DMF and mixing the inhibitor with substrate (final concentration 2 μM) in a quartz cuvette containing 2 ml of assay buffer. MMP-12 was added to start the reaction at a concentration of 2 nM and progress curves were generated. For routine measurement of a Ki value for a reversible competitive inhibitor, the initial rates in the presence of at least four inhibitor concentrations (two concentrations above and two concentrations below the Ki) were measured [S]=2 μM (<<Km) and [MMP-12]=2 nM. Under these conditions, the measured Ki,app is close to the true Ki.
Ki values were determined using the microtiter plate method in a manner similar to that described for the cuvette method with some modifications. Four different inhibitor concentrations (50 μl in assay buffer) of each compound were added to separate wells of a microtiter plate and substrate was added (100 μl) to get a final concentration of […]. MMP-12 was added to a final concentration of 2 nM (50 μl) to start the reaction. Cleavage of substrate was recorded every 30 seconds for 30 minutes and progress curves were generated.
The Ki for a competitive inhibitor was calculated using: V0/Vi=(1+[I]/Ki,app) and Ki=Ki,app/(1+[S]/Km), where V0 is the initial rate in the absence of inhibitor, Vi is the initial rate in the presence of inhibitor at the concentration of [I], [S] is the substrate concentration, and Km is the Michaelis constant. If slow binding is observed (i.e. if the approach to the binding equilibrium is slow), the final steady-state rate rather than the initial rate is taken as Vi.

T1 sequence (P39900 106-263 limits assumed): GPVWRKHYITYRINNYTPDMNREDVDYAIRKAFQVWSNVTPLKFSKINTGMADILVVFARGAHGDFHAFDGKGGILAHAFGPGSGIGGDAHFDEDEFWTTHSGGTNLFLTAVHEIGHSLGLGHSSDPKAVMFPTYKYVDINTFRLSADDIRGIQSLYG

CCCC(S)C(=O)N[C@@H](CCc1ccccc1)C(=O)N[C@@H](Cc1ccccc1)C(=O)O (some centres unmarked) [Example 1, 2-Mercapto-pentanoyl-(L)-homo-phenylalanyl-(L)-phenylalanine]
selectivity for MMP-12 over MMP-1, MMP-2, and MMP-3: selective for MMP-12 over MMP-1, MMP-2, and MMP-3

CC(C)[C@H](S)C(=O)N[C@@H](CCc1ccccc1)C(=O)N[C@@H](Cc1ccccc1)C(=O)O [Example 2, (S)-2-Mercapto-3-methylbutyroyl-(L)-homo-phenylalanyl-(L)-phenylalanine]
selectivity for MMP-12 over MMP-1, MMP-2, and MMP-3: selective for MMP-12 over MMP-1, MMP-2, and MMP-3
